Measurements reported in patent US5514814A, “Pyrrolinone-based compounds” (Trustees of the University of Pennsylvania, priority 1994, dated 1996).

System: renin
Assay: Effective renin inhibitor at stated concentration
Type: biochemical
Settings: not given

Compound	found to act as an effective renin inhibitor at (concentration) [nM]
CC(C)=CCC1(Cc2ccccc2)NC=C(C(CC(C)C)C(=O)NC(CC2CCCCC2)C(O)C(O)CC(C)C)C1=O [Structure (10a), 5(S)-prenyl-(5-benzyl)pyrrolin-4-one-3!-2(R)-isobutylacetate-1-amino-1(S)-cyclohexylmethyl-2(R)3 3 (S)-dihydroxy-5-methylhexane!-amide]	700

Target: HIV1 (Human immunodeficiency virus type 1 (NEW YORK-5 ISOLATE), UniProt P12497)
Assay: Effective HIV1 inhibitor at stated concentration
Type: biochemical
Settings: not given

found to act as effective HIV1 inhibitor at (concentration) [µM]	Compound
3.5	CC(C)=CCC1(Cc2ccccc2)NC=C(C2(CC(C)C)NC=C(C(CC3CCCCC3)C(O)C(O)CC(C)C)C2=O)C1=O (stereo not shown) [Structure (9a)]

Target: T1, HIV-1 protease (Human immunodeficiency virus type 1 group M subtype B, UniProt P12497)
T1 construct: HIV-1 protease purified generally according to Heimbach; made in house
Assay: Inhibition of purified HIV-1 protease (IC50)
Type: biochemical
Settings: HIV-1 protease purified generally according to Heimbach, et al.
Description: The extent to which the compounds of the invention for inhibit and prevent the spread of HIV-1 protease was determined generally according to the methods disclosed by Thompson, et al., J. Med. Chem. 1992, 35, 1685. IC50 and CIC95 values were determined using HIV-1 protease purified generally according to Heimbach, et al., Biochem. Biophys. Res. Commun. 1989, 164, 955.

Compound	IC50 [nM]
CC(C)CC1(C2=CNC(Cc3ccccc3)(CC(O)C(Cc3ccccc3)NC(=O)OC(C)(C)C)C2=O)NC=C(C(Cc2ccccc2)C(N)=O)C1=O (stereo not shown) [(11)]	10
CC(C)C[C@@]1(C2=CN[C@@](Cc3ccccc3)(C[C@H](O)[C@H](Cc3ccccc3)NC(=O)O[C@H]3CCOC3)C2=O)NC=C([C@@H](Cc2ccccc2)C(N)=O)C1=O [(49)]	1.3
CC(C)C[C@@]1(C2=CN[C@@](Cc3ccccc3)(C[C@H](O)[C@H](Cc3ccccc3)NC(=O)O[C@H]3CCOC3)C2=O)NC=C([C@@H](Cc2ccccc2)C(=O)NC(C)(C)C)C1=O [(53)]	3.3
CC(C)C[C@@]1(C2=CN[C@@](Cc3ccccc3)(C[C@H](O)[C@H](Cc3ccccc3)NC(=O)OC(C)(C)C)C2=O)NC=C([C@@H](Cc2ccccc2)C(=O)NC(C)(C)C)C1=O [(54)]	48
COC(=O)[C@H](Cc1ccccc1)C1=CN[C@@](CC(C)C)(C2=CN[C@@](Cc3ccccc3)(C[C@H](O)[C@H](Cc3ccccc3)NC(=O)O[C@H]3CCOC3)C2=O)C1=O [(58)]	2
COC(=O)[C@H](Cc1ccccc1)C1=CN[C@@](CC(C)C)(C2=CN[C@@](Cc3ccccc3)(C[C@H](O)[C@H](Cc3ccccc3)NC(=O)OC(C)(C)C)C2=O)C1=O [(59)]	37
O=C(N[C@@H](Cc1ccccc1)[C@@H](O)C[C@]1(Cc2ccccc2)NC=C([C@H]2c3ccccc3C[C@H]2O)C1=O)O[C@H]1CCOC1 [(67)]	2
CC(C)(C)OC(=O)N[C@@H](Cc1ccccc1)[C@@H](O)C[C@]1(Cc2ccccc2)NC=C([C@H]2c3ccccc3C[C@H]2O)C1=O [(68)]	11.9
